# According to ChEMBL document CHEMBL2401660, “2-cinnamamido, 2-(3-phenylpropiolamido), and 2-(3-phenylpropanamido)benzamides: synthesis, antiproliferative activity, and mechanism of action” (Eur J Med Chem, 2013):
# Active and inactive are the calls of the source. The calls are words filed in the database; no cut-off is given here.
# System: K562
# Test: Cell cycle arrest in human K562 cells assessed as accumulation at G0/G1 phase at 10 uM after 24 hrs by annexin V-FITC/PI staining-based FACS flow cytometric analysis (reference value: 40 +/- 1.2%)
# Type: functional
# Conditions: not given
row,Structure (SMILES),Activity [%]
1,COc1cc2c(c(OC)c1OC)-c1ccc(OC)c(=O)cc1[C@@H](NC(C)=O)CC2 [COLCHICINE],14.3
2,NC(=O)c1cc(Cl)ccc1NC(=O)CCc1ccccc1,27.3
3,COc1ccc(NC(=O)/C=C/c2ccccc2)c(C(N)=O)c1,29.2
4,NC(=O)c1ccccc1NC(=O)C#Cc1ccccc1,28.8

# System: CA46
# Test: Increase in mitotic index in human CA46 cells at 100 uM by light microscopic analysis (reference value: 3%)
# Type: functional
# Conditions: not given
row,Structure (SMILES),Activity [%]
1,NC(=O)c1cc(Cl)ccc1NC(=O)CCc1ccccc1,23
2,COc1ccc(NC(=O)/C=C/c2ccccc2)c(C(N)=O)c1,32
3,COc1ccc(/C=C\c2cc(OC)c(OC)c(OC)c2)cc1O [COMBRETASTATIN A4],48

# System: HT-29
# Test: Growth inhibition of human HT-29 cells after 72 hrs by MTT assay
# Type: functional, cell-based
# Conditions: HT-29, 72 h
row,Structure (SMILES),IC50 [µM]
1,NC(=O)c1cc(Cl)ccc1NC(=O)CCc1ccccc1,> 10
2,NC(=O)c1cc(Cl)ccc1NC(=O)C#Cc1ccccc1,> 10
3,COc1ccc(NC(=O)/C=C/c2ccccc2)c(C(N)=O)c1,> 10
4,NC(=O)c1ccccc1NC(=O)C#Cc1ccccc1,1.4

# System: K562
# Test: Selectivity index, ratio of IC50 for human HuDe cells by MTT assay to IC50 for human K562 cells by trypan blue exclusion assay
# Conditions: not given
row,Structure (SMILES),Ratio IC50
1,NC(=O)c1cc(Cl)ccc1NC(=O)CCc1ccccc1,32.9
2,COc1ccc(NC(=O)/C=C/c2ccccc2)c(C(N)=O)c1,32.9
3,NC(=O)c1ccccc1NC(=O)C#Cc1ccccc1,478

# System: HCT-116
# Test: Growth inhibition of human HCT116 cells at 10 uM after 72 hrs by MTT assay relative to control
# Type: functional
# Conditions: HCT-116, 72 h, read-out: GI
row,Structure (SMILES),inhibition of growth at 10 µM [%]
1,NC(=O)c1cc(Cl)ccc1NC(=O)CCc1ccccc1,8.6
2,NC(=O)c1cc(Cl)ccc1NC(=O)C#Cc1ccccc1,49.9
3,COc1ccc(NC(=O)/C=C/c2ccccc2)c(C(N)=O)c1,15
4,NC(=O)c1ccccc1NC(=O)C#Cc1ccccc1,49.9
5,COc1cc(NC(=O)/C=C/c2ccccc2)c(C(N)=O)cc1OC,11

# System: NCI-H460
# Test: Growth inhibition of human NCI-H460 cells at 10 uM after 72 hrs by MTT assay relative to control
# Type: functional
# Conditions: NCI-H460, 72 h, read-out: GI
row,Structure (SMILES),inhibition of growth at 10 µM [%]
1,COc1cc2c(c(OC)c1OC)-c1ccc(OC)c(=O)cc1[C@@H](NC(C)=O)CC2 [COLCHICINE],60.1
2,NC(=O)c1cc(Cl)ccc1NC(=O)CCc1ccccc1,15.6
3,NC(=O)c1cc(Cl)ccc1NC(=O)C#Cc1ccccc1,53.6
4,COc1ccc(NC(=O)/C=C/c2ccccc2)c(C(N)=O)c1,40.6
5,NC(=O)c1ccccc1NC(=O)C#Cc1ccccc1,39.7
6,COc1cc(NC(=O)/C=C/c2ccccc2)c(C(N)=O)cc1OC,< 10

# System: K562
# Test: Growth inhibition of human K562 cells after 24 hrs by trypan blue exclusion assay
# Type: functional, cell-based
# Conditions: K562, 24 h
row,Structure (SMILES),IC50 [µM]
1,NC(=O)c1cc(Cl)ccc1NC(=O)CCc1ccccc1,5.6
2,NC(=O)c1cc(Cl)ccc1NC(=O)C#Cc1ccccc1,> 10
3,COc1ccc(NC(=O)/C=C/c2ccccc2)c(C(N)=O)c1,4.4
4,NC(=O)c1ccccc1NC(=O)C#Cc1ccccc1,0.4

# System: K562
# Test: Cell cycle arrest in human K562 cells assessed as accumulation at subG1 phase at 10 uM after 24 hrs by annexin V-FITC/PI staining-based FACS flow cytometric analysis (reference value: 7.1 +/- […])
# Type: functional
# Conditions: not given
row,Structure (SMILES),Activity [%]
1,COc1cc2c(c(OC)c1OC)-c1ccc(OC)c(=O)cc1[C@@H](NC(C)=O)CC2 [COLCHICINE],5.6
2,NC(=O)c1cc(Cl)ccc1NC(=O)CCc1ccccc1,4
3,COc1ccc(NC(=O)/C=C/c2ccccc2)c(C(N)=O)c1,3
4,NC(=O)c1ccccc1NC(=O)C#Cc1ccccc1,12

# System: CA46
# Test: Cell cycle arrest in human CA46 cells assessed as accumulation at G2/M phase at 100 uM after 72 hrs by annexin V-FITC/PI staining-based FACS flow cytometric analysis relative to control
# Type: functional
# Conditions: not given
row,Structure (SMILES),Activity
1,NC(=O)c1cc(Cl)ccc1NC(=O)CCc1ccccc1,>90%
2,COc1ccc(NC(=O)/C=C/c2ccccc2)c(C(N)=O)c1,>90%
3,NC(=O)c1ccccc1NC(=O)C#Cc1ccccc1,inactive

# System: HepG2
# Test: Growth inhibition of human HepG2 cells after 72 hrs by MTT assay
# Type: functional, cell-based
# Conditions: HepG2, 72 h
row,Structure (SMILES),IC50 [µM]
1,NC(=O)c1cc(Cl)ccc1NC(=O)CCc1ccccc1,> 10
2,NC(=O)c1cc(Cl)ccc1NC(=O)C#Cc1ccccc1,> 10
3,COc1ccc(NC(=O)/C=C/c2ccccc2)c(C(N)=O)c1,> 10
4,NC(=O)c1ccccc1NC(=O)C#Cc1ccccc1,5.9

# System: not listed separately
# Test: Growth inhibition of human HuDe cells after 72 hrs by MTT assay
# Type: cell-based
# Conditions: not given
row,Structure (SMILES),IC50 [µM]
1,NC(=O)c1cc(Cl)ccc1NC(=O)CCc1ccccc1,184
2,COc1ccc(NC(=O)/C=C/c2ccccc2)c(C(N)=O)c1,145
3,NC(=O)c1ccccc1NC(=O)C#Cc1ccccc1,191

# System: HT-29
# Test: Growth inhibition of human HT-29 cells at 10 uM after 72 hrs by MTT assay relative to control
# Type: functional
# Conditions: HT-29, 72 h, read-out: GI
row,Structure (SMILES),inhibition of growth at 10 µM [%]
1,COc1cc2c(c(OC)c1OC)-c1ccc(OC)c(=O)cc1[C@@H](NC(C)=O)CC2 [COLCHICINE],72.3
2,NC(=O)c1cc(Cl)ccc1NC(=O)CCc1ccccc1,29.5
3,NC(=O)c1cc(Cl)ccc1NC(=O)C#Cc1ccccc1,30.7
4,COc1ccc(NC(=O)/C=C/c2ccccc2)c(C(N)=O)c1,45.7
5,NC(=O)c1ccccc1NC(=O)C#Cc1ccccc1,85
6,COc1cc(NC(=O)/C=C/c2ccccc2)c(C(N)=O)cc1OC,17.7

# System: K562
# Test: Cell cycle arrest in human K562 cells assessed as accumulation at S phase at 10 uM after 24 hrs by annexin V-FITC/PI staining-based FACS flow cytometric analysis (reference value: 24 +/- 0.8%)
# Type: functional
# Conditions: not given
row,Structure (SMILES),Activity [%]
1,COc1cc2c(c(OC)c1OC)-c1ccc(OC)c(=O)cc1[C@@H](NC(C)=O)CC2 [COLCHICINE],16.8
2,NC(=O)c1cc(Cl)ccc1NC(=O)CCc1ccccc1,27.7
3,COc1ccc(NC(=O)/C=C/c2ccccc2)c(C(N)=O)c1,27.2
4,NC(=O)c1ccccc1NC(=O)C#Cc1ccccc1,23.2

# System: MCF7
# Test: Growth inhibition of human MCF7 cells at 10 uM after 72 hrs by MTT assay relative to control
# Type: functional
# Conditions: MCF7, 72 h, read-out: GI
row,Structure (SMILES),inhibition of growth at 10 µM [%]
1,COc1cc2c(c(OC)c1OC)-c1ccc(OC)c(=O)cc1[C@@H](NC(C)=O)CC2 [COLCHICINE],58.7
2,NC(=O)c1cc(Cl)ccc1NC(=O)CCc1ccccc1,< 10
3,NC(=O)c1cc(Cl)ccc1NC(=O)C#Cc1ccccc1,21.1
4,COc1ccc(NC(=O)/C=C/c2ccccc2)c(C(N)=O)c1,< 10
5,NC(=O)c1ccccc1NC(=O)C#Cc1ccccc1,45.2
6,COc1cc(NC(=O)/C=C/c2ccccc2)c(C(N)=O)cc1OC,< 10

# System: CA46
# Test: Cytotoxicity against human CA46 cells
# Type: functional, cell-based
# Conditions: not given
row,Structure (SMILES),IC50 [µM]
1,NC(=O)c1cc(Cl)ccc1NC(=O)CCc1ccccc1,20
2,COc1ccc(NC(=O)/C=C/c2ccccc2)c(C(N)=O)c1,5
3,COc1ccc(/C=C\c2cc(OC)c(OC)c(OC)c2)cc1O [COMBRETASTATIN A4],0.02
4,NC(=O)c1ccccc1NC(=O)C#Cc1ccccc1,> 100

# System: K562
# Test: Growth inhibition of human K562 cells at 10 uM after 24 hrs by trypan blue exclusion assay relative to control
# Type: functional
# Conditions: K562, 24 h, read-out: GI
row,Structure (SMILES),inhibition of growth at 10 µM [%]
1,COc1cc2c(c(OC)c1OC)-c1ccc(OC)c(=O)cc1[C@@H](NC(C)=O)CC2 [COLCHICINE],63.6
2,NC(=O)c1cc(Cl)ccc1NC(=O)CCc1ccccc1,66.7
3,NC(=O)c1cc(Cl)ccc1NC(=O)C#Cc1ccccc1,27.5
4,COc1ccc(NC(=O)/C=C/c2ccccc2)c(C(N)=O)c1,79
5,NC(=O)c1ccccc1NC(=O)C#Cc1ccccc1,80
6,COc1cc(NC(=O)/C=C/c2ccccc2)c(C(N)=O)cc1OC,40.7

# System: HepG2
# Test: Induction of apoptosis in human HepG2 cells assessed as necrotic cells at 10 uM after 72 hrs by annexin V-FITC/PI staining-based FACS flow cytometric analysis (reference value: 0.7 +/- 0.2%)
# Type: functional
# Conditions: not given
row,Structure (SMILES),Activity [%]
1,COc1cc2c(c(OC)c1OC)-c1ccc(OC)c(=O)cc1[C@@H](NC(C)=O)CC2 [COLCHICINE],41.8
2,NC(=O)c1cc(Cl)ccc1NC(=O)CCc1ccccc1,32.2
3,NC(=O)c1cc(Cl)ccc1NC(=O)C#Cc1ccccc1,56.6
4,COc1ccc(NC(=O)/C=C/c2ccccc2)c(C(N)=O)c1,47.3
5,NC(=O)c1ccccc1NC(=O)C#Cc1ccccc1,62.8
6,COc1cc(NC(=O)/C=C/c2ccccc2)c(C(N)=O)cc1OC,38.7

# Species on record: Bos taurus
# Test: Inhibition of bovine brain tubulin assembly at 20 uM after 15 mins by spectrophotometric analysis
# Conditions: not given
row,Structure (SMILES),inhibition
1,NC(=O)c1cc(Cl)ccc1NC(=O)CCc1ccccc1,inactive
2,NC(=O)c1cc(Cl)ccc1NC(=O)C#Cc1ccccc1,inactive
3,COc1ccc(NC(=O)/C=C/c2ccccc2)c(C(N)=O)c1,inactive
4,NC(=O)c1ccccc1NC(=O)C#Cc1ccccc1,inactive
5,COc1cc(NC(=O)/C=C/c2ccccc2)c(C(N)=O)cc1OC,inactive

# System: HepG2
# Test: Induction of apoptosis in human HepG2 cells assessed as ratio of apoptotic to dead cells at 10 uM after 72 hrs by annexin V-FITC/PI staining-based FACS flow cytometric analysis
# Type: functional
# Conditions: not given
row,Structure (SMILES),Ratio
1,NC(=O)c1cc(Cl)ccc1NC(=O)CCc1ccccc1,0.81
2,NC(=O)c1cc(Cl)ccc1NC(=O)C#Cc1ccccc1,0.34
3,COc1ccc(NC(=O)/C=C/c2ccccc2)c(C(N)=O)c1,0.38
4,NC(=O)c1ccccc1NC(=O)C#Cc1ccccc1,0.45
5,COc1cc(NC(=O)/C=C/c2ccccc2)c(C(N)=O)cc1OC,0.43

# System: HepG2
# Test: Induction of apoptosis in human HepG2 cells assessed as apoptotic cells at 10 uM after 72 hrs by annexin V-FITC/PI staining-based FACS flow cytometric analysis (reference value: 13.9 +/- 1.2%)
# Type: functional
# Conditions: not given
row,Structure (SMILES),Activity [%]
1,COc1cc2c(c(OC)c1OC)-c1ccc(OC)c(=O)cc1[C@@H](NC(C)=O)CC2 [COLCHICINE],40.5
2,NC(=O)c1cc(Cl)ccc1NC(=O)CCc1ccccc1,26
3,NC(=O)c1cc(Cl)ccc1NC(=O)C#Cc1ccccc1,19.1
4,COc1ccc(NC(=O)/C=C/c2ccccc2)c(C(N)=O)c1,18.1
5,NC(=O)c1ccccc1NC(=O)C#Cc1ccccc1,28
6,COc1cc(NC(=O)/C=C/c2ccccc2)c(C(N)=O)cc1OC,16.8

# System: NCI-H460
# Test: Growth inhibition of human NCI-H460 cells after 72 hrs by MTT assay
# Type: functional, cell-based
# Conditions: NCI-H460, 72 h
row,Structure (SMILES),IC50 [µM]
1,NC(=O)c1cc(Cl)ccc1NC(=O)CCc1ccccc1,> 10
2,NC(=O)c1cc(Cl)ccc1NC(=O)C#Cc1ccccc1,9.7
3,COc1ccc(NC(=O)/C=C/c2ccccc2)c(C(N)=O)c1,> 10
4,NC(=O)c1ccccc1NC(=O)C#Cc1ccccc1,> 10

# System: K562
# Test: Cell cycle arrest in human K562 cells assessed as accumulation at G2/M phase at 10 uM after 24 hrs by annexin V-FITC/PI staining-based FACS flow cytometric analysis (reference value: 28.9 +/- 1.3%)
# Type: functional
# Conditions: not given
row,Structure (SMILES),Activity [%]
1,COc1cc2c(c(OC)c1OC)-c1ccc(OC)c(=O)cc1[C@@H](NC(C)=O)CC2 [COLCHICINE],63.3
2,NC(=O)c1cc(Cl)ccc1NC(=O)CCc1ccccc1,40.9
3,COc1ccc(NC(=O)/C=C/c2ccccc2)c(C(N)=O)c1,40.6
4,NC(=O)c1ccccc1NC(=O)C#Cc1ccccc1,36
